# Results: patent publication US20250134874A1, “PHARMACEUTICAL FORMULATIONS COMPRISING 3-({[(4R)-7-{METHYL[4-(PROPAN-2-YL)PHENYL]AMINO}-3,4-DIHYDRO-2H-1-BENZOPYRAN-4-YL]METHYL}AMINO)PYRIDINE-4-CARBOXYLIC ACID” (TACHYON THERAPEUTICS, INC., priority 2021, published 2025)
# Tested on: 301 cancer cell lines from different tumor types (OncoPanel; HD Biosciences)
# Test: 2D cell viability inhibition assay (CellTiter-Glo) in cancer cell line panel
# Type: cell-based
# Details: Homo sapiens
# Experimental: In a larger screening study, compound 1 was evaluated across a broad cancer cell line panel (OncoPanel; HD Biosciences) composed of 301 cancer cell lines from different tumor types.
# 2D cell viability inhibition assays were performed in multiwell plates seeded with cells from the panel. After seeding, the plates were cultured overnight in a humidified incubator at 37° C. to promote adherence. Assays were initiated in individual wells by adding either DMSO as a vehicle control, growth media as a blank, or serially diluted compound 1 (10 μM to 0.0005 μM with 1:3 serial dilution). Cultures were incubated for 168 hours after which the number of viable cells in each test well was assessed using the CellTiter-Glo® Luminescent Cell Viability Assay. Luminescence readouts were performed using an EnVision® Multilabel Reader and the compound 1 readouts were normalized to the DMSO control readouts, expressed as a percent of the control. Outliers were flagged out by visual inspection. Percent of control was plotted against the corresponding compound 1 concentration and the absolute IC50 value was determined using four-parameter logistic non-linear regression as the concentration where inhibition was 50% of the control. For maximum inhibition <50%, the absolute IC50 was reported as >10. In addition to EC50 and IC50, AUC was determined and was normalized to the area corresponding to theoretical no-inhibition (the rectangular area defined by the compound dose range and 0 to 100 in y). Emax was recorded as the minimum in y with the compound dose range. For those cell lines where Emax>40, EC50 was manually set to 10 μM. A hierarchical clustering algorithm based on Euclidean distance between the standardized input values and “Ward.D” method as implemented in R hclust function was used to visualize the compound 1 cellular potency data. The sensitive/moderate/resistant calls for each cell line was determined by visually inspecting the resulting clustering dendrogram. All the analyses were done in R Core Team.
smiles,measurement,setting,value
"CC(C)c1ccc(N(C)c2ccc3c(c2)OCC[C@H]3CNc2cnccc2C(=O)O)cc1 [Compound 1, 3-({[(4R)-7-{methyl[4-(propan-2-yl)phenyl]amino}-3,4-dihydro-2H-1-benzopyran-4-yl]methyl}amino)pyridine-4-carboxylic acid]",EC50,"KYSE-30, KYSE30 cell line",≥ 10000 nM
same,IC50,"KYSE-30, KYSE30 cell line",2.43 nM
same,IC50,"KYSE-70, 168 h, KYSE70, oesophagus, squamous cell carcinoma, 168 hours",> 10000 nM
same,EC50,"KYSE-150, KYSE150 cell line",4.41 nM
same,IC50,"KYSE-150, KYSE150 cell line",5.1 nM
same,EC50,"KYSE-270, KYSE270 cell line",5.11 nM
same,IC50,"KYSE-270, KYSE270 cell line",5.35 nM
same,EC50,"KYSE-410, KYSE410 cell line",5.47 nM
same,IC50,"KYSE-410, KYSE410 cell line",8.25 nM
same,EC50,"KYSE-510, KYSE510 cell line",3.42 nM
same,IC50,"KYSE-510, KYSE510 cell line",3.4 nM
same,IC50,"Kasumi 1, 168 h, KASUMI1, haematopoietic and lymphoid tissue, acute myeloid leukaemia, 168 hours",> 10000 nM
same,EC50,"LNCaP, LNCAP cell line",3.54 nM
same,IC50,"LNCaP, LNCAP cell line",4.65 nM
same,EC50,"LS-411N, LS411N cell line",16.8 nM
same,IC50,"LS-411N, LS411N cell line",16.7 nM
same,IC50,"LoVo, LOVO cell line",57.8 nM
same,EC50,"Lu-65, LU65 cell line",7.19 nM
same,IC50,"Lu-65, LU65 cell line",10.6 nM
same,IC50,"Lu-99, 168 h, LU99, lung, large cell carcinoma, 168 hours",> 10000 nM
same,EC50,"MC116, MC116 cell line",5.21 nM
same,IC50,"MC116, MC116 cell line",4.6 nM
same,IC50,"MCF7, MCF7 cell line",435 nM
same,IC50,"MDA-MB-157, 168 h, MDAMB157, breast, ductal carcinoma, 168 hours",> 10000 nM
same,IC50,"MDA-MB-175-VII, 168 h, MDAMB175VII, breast, ductal carcinoma",> 10000 nM
same,IC50,"MDA-MB-231, 168 h, MDAMB231, breast, NS, 168 hours",> 10000 nM
same,IC50,"MDA-MB-361, 168 h, MDAMB361, breast, NS, 168 hours",> 10000 nM
same,IC50,"MDA-MB-415, 168 h, MDAMB415, breast, NS, 168 hours",> 10000 nM
same,IC50,"MDA-MB-436, 168 h, MDAMB436, breast, NS, 168 hours",> 10000 nM
same,EC50,"MDA-MB-453, MDAMB453 cell line",8.03 nM
same,IC50,"MDA-MB-453, MDAMB453 cell line",10.4 nM
same,IC50,"MDA-MB-468, 168 h, MDAMB468, breast, NS, 168 hours",> 10000 nM
same,EC50,"MES-SA, MESSA cell line",9 nM
same,IC50,"MES-SA, MESSA cell line",14.3 nM
same,EC50,"MIA PaCa-2, MIAPACA2 cell line",5.28 nM
same,IC50,"MIA PaCa-2, MIAPACA2 cell line",7.02 nM
same,EC50,"MKN-1, MKN1 cell line",4.33 nM
same,IC50,"MKN-1, MKN1 cell line",5.75 nM
same,EC50,"MKN-45, MKN45 cell line",11 nM
same,IC50,"MKN-45, MKN45 cell line",13.5 nM
same,EC50,"MOLT-4, MOLT4 cell line",0.508 nM
same,IC50,"MOLT-4, MOLT4 cell line",1.25 nM
same,EC50,"MV4-11, MV411 cell line",3.92 nM
same,IC50,"MV4-11, MV411 cell line",4.02 nM
same,IC50,"Malme-3M, 168 h, MALME3M, skin, NS",> 10000 nM
same,IC50,"MeWo, 168 h, skin, NS",> 10000 nM
same,EC50,"NCI-H23, NCIH23 cell line",37.7 nM
same,IC50,"NCI-H23, NCIH23 cell line",42.7 nM
same,EC50,"NCI-H69, NCIH69 cell line",7.14 nM
same,IC50,"NCI-H69, NCIH69 cell line",7.09 nM
same,EC50,"NCI-H82, NCIH82 cell line",3.31 nM
same,IC50,"NCI-H82, NCIH82 cell line",3.54 nM
same,EC50,"NCI-H209, NCIH209 cell line",1.48 nM
same,IC50,"NCI-H209, NCIH209 cell line",1.31 nM
same,EC50,"NCI-H358, NCIH358 cell line",3.05 nM
same,IC50,"NCI-H358, NCIH358 cell line",6.57 nM
same,IC50,"NCI-H441, 168 h, NCIH441, lung, adenocarcinoma, 168 hours",> 10000 nM
same,EC50,"NCI-H446, NCIH446 cell line",14.5 nM
same,IC50,"NCI-H446, NCIH446 cell line",119 nM
same,EC50,"NCI-H460, NCIH460 cell line",11.1 nM
same,IC50,"NCI-H460, NCIH460 cell line",11.6 nM
same,EC50,"NCI-H508, NCIH508 cell line",9.16 nM
same,IC50,"NCI-H508, NCIH508 cell line",10.2 nM
same,EC50,"NCI-H520, NCIH520 cell line",5.06 nM
same,IC50,"NCI-H520, NCIH520 cell line",5.9 nM
same,EC50,"NCI-H522, NCIH522 cell line",11.5 nM
same,IC50,"NCI-H522, NCIH522 cell line",17.4 nM
same,EC50,"NCI-H524, NCIH524 cell line",4.98 nM
same,IC50,"NCI-H524, NCIH524 cell line",6.85 nM
same,IC50,"NCI-H596, 168 h, NCIH596, lung, mixed adenosquamous carcinoma, 168 hours",> 10000 nM
same,EC50,"NCI-H647, NCIH647 cell line",6.04 nM
same,IC50,"NCI-H647, NCIH647 cell line",9.84 nM
same,EC50,"NCI-H661, NCIH661 cell line",9.06 nM
same,IC50,"NCI-H661, NCIH661 cell line",9.73 nM
same,EC50,"NCI-H716, NCIH716 cell line",5.77 nM
same,IC50,"NCI-H716, NCIH716 cell line",9.51 nM
same,EC50,"NCI-H929, NCIH929 cell line",20.6 nM
same,IC50,"NCI-H929, NCIH929 cell line",34.5 nM
same,EC50,"NCI-H1048, NCIH1048 cell line",0.508 nM
same,IC50,"NCI-H1048, NCIH1048 cell line",0.706 nM
same,EC50,"NCI-H1092, NCIH1092 cell line",3.93 nM
same,IC50,"NCI-H1092, NCIH1092 cell line",7.16 nM
same,EC50,"NCI-H1155, NCIH1155 cell line",0.884 nM
same,IC50,"NCI-H1155, NCIH1155 cell line",0.765 nM
same,EC50,"NCI-H1299, NCIH1299 cell line",5.38 nM
same,IC50,"NCI-H1299, NCIH1299 cell line",7.5 nM
same,EC50,"NCI-H1355, NCIH1355 cell line",≥ 10000 nM
same,IC50,"NCI-H1355, NCIH1355 cell line",20.6 nM
same,IC50,"NCI-H1395, 168 h, NCIH1395, lung, adenocarcinoma, 168 hours",> 10000 nM
same,EC50,"NCI-H1436, NCIH1436 cell line",≥ 10000 nM
same,IC50,"NCI-H1436, NCIH1436 cell line",8.75 nM
same,EC50,"NCI-H1437, NCIH1437 cell line",9.48 nM
same,IC50,"NCI-H1437, NCIH1437 cell line",13.1 nM
same,IC50,"NCI-H1563, 168 h, NCIH1563, lung, adenocarcinoma, 168 hours",> 10000 nM
same,IC50,"NCI-H1573, 168 h, NCIH1573, lung, adenocarcinoma, 168 hours",> 10000 nM
same,EC50,"NCI-H1623, NCIH1623 cell line",8.13 nM
same,IC50,"NCI-H1623, NCIH1623 cell line",18.9 nM
same,IC50,"NCI-H1650, 168 h, NCIH1650, lung, bronchioloalveolar adenocarcinoma, 168 hours",> 10000 nM
same,EC50,"NCI-H1666, NCIH1666 cell line",0.508 nM
same,IC50,"NCI-H1666, NCIH1666 cell line",1.17 nM
same,EC50,"NCI-H1694, NCIH1694 cell line",0.508 nM
same,IC50,"NCI-H1694, NCIH1694 cell line",1.75 nM
same,EC50,"NCI-H1703, NCIH1703 cell line",4.88 nM
same,IC50,"NCI-H1703, NCIH1703 cell line",8.05 nM
same,IC50,"NCI-H1734, NCIH1734 cell line",> 10000 nM
same,IC50,"NCI-H1755, 168 h, NCIH1755, lung, adenocarcinoma, 168 hours",> 10000 nM
same,EC50,"NCI-H1793, NCIH1793 cell line",8.36 nM
same,IC50,"NCI-H1793, NCIH1793 cell line",15.3 nM
same,EC50,"NCI-H1836, NCIH1836 cell line",4.88 nM
same,IC50,"NCI-H1836, NCIH1836 cell line",6.07 nM
same,IC50,"NCI-H1838, 168 h, NCIH1838, lung, non-small cell carcinoma, 168 hours",> 10000 nM
same,EC50,"NCI-H1930, NCIH1930 cell line",6.62 nM
same,IC50,"NCI-H1930, NCIH1930 cell line",20 nM
